This assay deals with T-47D cells. Briefly: Caspase cascade activation / induction of apoptosis in T-47D cells (fluorogenic N-(Ac-DEVD)-N'-ethoxycarbonyl-R110 substrate). The class given is cell-based, human. As to conditions: for EC50: Homo sapiens, T47D.
Setting [1] is: T-47D, 48 hr, benzohydrazide table, read-out: T-47D (48 hr) EC50.
The mark [2] stands for this setting: T-47D, 48 hr, benzohydrazide table.
The mark [3] stands for this setting: T-47D, 24 hr, read-out: T-47D (24 hr) EC50.
[4] abbreviates: T-47D, 48 hr, read-out: T-47D (48 hr) EC50.

Like-named read-outs stand apart in the source and are kept apart here.

Consider `CSc1nc(N(C)NC(=O)c2ccc(Cl)cc2)c2ccccc2n1`, for which, under setting [1], the EC50 came out at 138 nM. In addition, under setting [2], the “T-47D (48 hr) Ratio” value is 14.4.
Regarding `CSc1nc(N(C)NC(=O)c2cccs2)c2ccccc2n1`, the EC50 under setting [1] was 737 nM. Further, the “T-47D (48 hr) Ratio” value under setting [2] was determined as 10.1.
For `CSc1nc(N(C)NC(=O)c2ccccc2)c2ccccc2n1` the same measures were 149 nM and 14.7.
For `CN(NC(=O)c1ccccc1F)c1nc(C(F)(F)F)nc2ccccc12` the same measures were 184 nM and 13.7.
The like results for `CSc1nc(N(C)NC(=O)c2ccc(F)cc2)c2ccccc2n1` were, in that order, 290 nM and 13.8.
With `CSc1nc(N(C)NC(=O)c2cccc(C)c2)c2ccccc2n1`, the EC50 under setting [1] worked out at 46 nM. In addition, the “T-47D (48 hr) Ratio” value under setting [2] amounted to 12.7.
For `COc1ccc(C(=O)NN(C)c2nc(C(F)(F)F)nc3ccccc23)cc1` the same measures were 39 nM and 13.1.
As to `CN(c1ccc(Cl)cc1)c1nc(Cl)nc2ccccc12` [Example 3, (2-Chloro-quinazolin-4-yl)-(4-chloro-phenyl)-methyl-amine], under setting [3], the 50% effective concentration (EC50) came to 79 nM.
Still for that read-out and setting: to `CN(c1ccc([N+](=O)[O-])cc1)c1nc(Cl)nc2ccccc12` [Example 4, (2-Chloro-quinazolin-4-yl)-(4-nitro-phenyl)-methyl-amine] belongs 872 nM; to `CN(c1ccc(OC(F)(F)F)cc1)c1nc(Cl)nc2ccccc12` [Example 5, (2-Chloro-quinazolin-4-yl)-(4-trifluoromethoxy-phenyl)-methyl-amine], 24 nM.
Regarding `Cc1ccc(Nc2nc(Cl)nc3ccccc23)cc1` [Example 8, (2-Chloro-quinazolin-4-yl)-(4-methyl-phenyl)-amine], the EC50 under setting [3] is greater than 10000 nM.
With `COc1ccc2c(ccn2-c2nc(Cl)nc3ccccc23)c1` [Example 9, 2-Chloro-4-(5-methoxyindol-1-yl)quinazoline], the EC50 under setting [4] is greater than 10000 nM.
Take `COc1ccc(N(C)c2nc(NO)nc3ccccc23)cc1` [Example 10, N^2-Hydroxyl-N^4-(4-methoxy-phenyl)-N^4-methyl-quinazoline-2,4-diamine]: under setting [4], the EC50 stood at 48 nM.
As to `COc1ccc(N(C)c2nc(NCCO)nc3ccccc23)cc1` [Example 11, N^2-(2-Hydroxylethyl)-N^4-(4-methoxy-phenyl)-N^4-methyl-quinazoline-2,4-diamine], the EC50 is, setting by setting: under setting [3], 8 nM; under setting [4], 10 nM.
For `COc1ccc(N(C)c2nc(N)nc3ccccc23)cc1` [Example 12, N^4-(4-Methoxy-phenyl)-methyl-quinazoline-2,4-diamine], the EC50 is 8 nM under setting [3]; 9 nM under setting [4]; 8 nM (Table III, time not given, repeats 24 hr or 48 hr T-47D values of Table I, read-out: Caspase activation (EC50 nM)).
As to `COc1ccc(N(C)c2nc(NCCN3CCOCC3)nc3ccccc23)cc1` [Example 14, N^4-(4-Methoxy-phenyl)-N^4-methyl-N^2-(2-morpholin-4-yl-ethyl)-quinazoline-2,4-diamine], the EC50 runs as follows: under setting [3], 1340 nM; under setting [4], 1330 nM.
Take `COc1ccc(N(C)c2nc(N3CCOCC3)nc3ccccc23)cc1` [Example 15, (4-Methoxy-phenyl)-methyl-(2-morpholin-4-yl-quinazolin-4-yl)-amine]: the EC50 was 56 nM under setting [3] and 89 nM under setting [4].
Regarding `CC(C)=CCC/C(C)=C/CNc1nc(N(C)c2ccc(C)cc2)c2ccccc2n1` [Example 16, N^2-(3,7-Dimethyl-octa-2,6-dienyl)-N^4-(4-methyl-phenyl)-N^4-methyl-quinazoline-2,4-diamine], the EC50 under setting [3] is 296 nM.
Consider `COc1ccc(N(C)c2nc(N)nc3[nH]cnc23)cc1` [Example 17, N^6-(4-Methoxy-phenyl)-N^6-methyl-9H-purine-2,6-diamine], for which the EC50 under setting [3] amounted to 7940 nM.
Take `CN(c1ccccc1)c1nc(N(C)c2ccccc2)c2ccccc2n1` [Example 18, N^2,N^4-Dimethyl-N^2,N^4-diphenyl-quinazoline-2,4-diamine]: the EC50 was greater than 10000 nM under setting [3] and greater than 10000 nM under setting [4].

Usually EC50 stands for the concentration giving half of the maximal effect.

The record behind these values is patent publication US20130029942A1, “COMPOUNDS AND THERAPEUTICAL USES THEREOF” (Myrexis, Inc., priority 2003, published 2013).
